# Key:
# Assay in all cases: relative viability (nuclei count vs DMSO), 5 days (fraction); higher = more cells survive
# NCI-H460 = system: NCI-H460
# Summary of the method: (§1)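 Values are medians from duplicate plates. Each reflects relative viability, defined as the nuclei count of treated wells over that of vehicle wells. Lung cancer cell lines in 1536-well plates were pin-tool dosed one day after seeding with one drug alone or with a fixed anchor-drug dose plus five library-drug doses (not always all listed) in √10 steps, then fixed, stained and imaged at 4× after 5 days.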
# NCI-H1975 = system: NCI-H1975
# Summary of the method: as §1
# NCI-H2126 = system: NCI-H2126
# Summary of the method: as §1
# NCI-H596 = system: NCI-H596
# Summary of the method: as §1
# NCI-H727 = system: NCI-H727
# Summary of the method: as §1
# NCI-H2085 = system: NCI-H2085
# Summary of the method: as §1
# LCLC-103H = system: LCLC-103H
# Summary of the method: as §1
# LOU-NH91 = system: LOU-NH91
# Summary of the method: as §1
# RERF-LC-KJ = system: RERF-LC-KJ
# Summary of the method: as §1
# HARA = system: HARA
# Summary of the method: as §1
# NCI-H838 = system: NCI-H838
# Summary of the method: as §1
# NCI-H1734 = system: NCI-H1734
# Summary of the method: as §1
# CAL-12T = system: CAL-12T
# Summary of the method: as §1
# A-427 = system: A-427
# Summary of the method: as §1
# NCI-H647 = system: NCI-H647
# Summary of the method: as §1
# NCI-H1944 = system: NCI-H1944
# Summary of the method: as §1
# BEN = system: BEN
# Summary of the method: as §1
# ABC-1 = system: ABC-1
# Summary of the method: as §1
# NCI-H1666 = system: NCI-H1666
# Summary of the method: as §1
# NCI-H520 = system: NCI-H520
# Summary of the method: as §1
# SW 900 = system: SW 900
# Summary of the method: as §1
# NCI-H661 = system: NCI-H661
# Summary of the method: as §1
# NCI-H1651 = system: NCI-H1651
# Summary of the method: as §1
compound,measurement,setting,value
Cc1cn(-c2cc(NC(=O)c3ccc(C)c(Nc4nccc(-c5cccnc5)n4)c3)cc(C(F)(F)F)c2)cn1 [Nilotinib] + O=C(CCCCCCC(=O)Nc1ccccc1)NO [Vorinostat] (partner 1 µM),relative viability,NCI-H460; first compound 0.001 µM,0.428
same,relative viability,NCI-H460; first compound 0.003162 µM,0.996
same,relative viability,NCI-H460; first compound 0.01 µM,1.34
same,relative viability,NCI-H460; first compound 0.03162 µM,0.33
same,relative viability,NCI-H460; first compound 0.1 µM,0.535
same,relative viability,NCI-H1975; first compound 0.001 µM,0.598
same,relative viability,NCI-H1975; first compound 0.003162 µM,0.742
same,relative viability,NCI-H1975; first compound 0.01 µM,0.702
same,relative viability,NCI-H1975; first compound 0.03162 µM,0.489
same,relative viability,NCI-H1975; first compound 0.1 µM,0.643
same,relative viability,NCI-H2126; first compound 0.001 µM,0.754
same,relative viability,NCI-H2126; first compound 0.003162 µM,0.888
same,relative viability,NCI-H2126; first compound 0.01 µM,0.864
same,relative viability,NCI-H2126; first compound 0.03162 µM,0.764
same,relative viability,NCI-H2126; first compound 0.1 µM,0.476
same,relative viability,NCI-H596; first compound 0.001 µM,0.518
same,relative viability,NCI-H596; first compound 0.003162 µM,0.455
same,relative viability,NCI-H596; first compound 0.01 µM,0.651
same,relative viability,NCI-H596; first compound 0.03162 µM,0.532
same,relative viability,NCI-H596; first compound 0.1 µM,0.498
same,relative viability,NCI-H727; first compound 0.001 µM,1.12
same,relative viability,NCI-H727; first compound 0.003162 µM,1.35
same,relative viability,NCI-H727; first compound 0.01 µM,1.16
same,relative viability,NCI-H727; first compound 0.03162 µM,1.15
same,relative viability,NCI-H727; first compound 0.1 µM,1.05
same,relative viability,NCI-H2085; first compound 0.001 µM,0.833
same,relative viability,NCI-H2085; first compound 0.003162 µM,0.776
same,relative viability,NCI-H2085; first compound 0.01 µM,0.784
same,relative viability,NCI-H2085; first compound 0.03162 µM,0.753
same,relative viability,NCI-H2085; first compound 0.1 µM,0.598
same,relative viability,LCLC-103H; first compound 0.001 µM,0.74
same,relative viability,LCLC-103H; first compound 0.003162 µM,0.823
same,relative viability,LCLC-103H; first compound 0.01 µM,0.858
same,relative viability,LCLC-103H; first compound 0.03162 µM,0.691
same,relative viability,LCLC-103H; first compound 0.1 µM,0.433
same,relative viability,LOU-NH91; first compound 0.001 µM,1.03
same,relative viability,LOU-NH91; first compound 0.003162 µM,0.936
same,relative viability,LOU-NH91; first compound 0.01 µM,0.946
same,relative viability,LOU-NH91; first compound 0.03162 µM,0.898
same,relative viability,LOU-NH91; first compound 0.1 µM,0.882
same,relative viability,RERF-LC-KJ; first compound 0.001 µM,0.624
same,relative viability,RERF-LC-KJ; first compound 0.003162 µM,0.698
same,relative viability,RERF-LC-KJ; first compound 0.01 µM,0.734
same,relative viability,RERF-LC-KJ; first compound 0.03162 µM,0.568
same,relative viability,RERF-LC-KJ; first compound 0.1 µM,0.453
same,relative viability,HARA; first compound 0.001 µM,0.544
same,relative viability,HARA; first compound 0.003162 µM,0.668
same,relative viability,HARA; first compound 0.01 µM,0.507
same,relative viability,HARA; first compound 0.03162 µM,0.401
same,relative viability,HARA; first compound 0.1 µM,0.423
same,relative viability,NCI-H838; first compound 0.001 µM,0.693
same,relative viability,NCI-H838; first compound 0.003162 µM,0.783
same,relative viability,NCI-H838; first compound 0.01 µM,0.753
same,relative viability,NCI-H838; first compound 0.03162 µM,0.726
same,relative viability,NCI-H838; first compound 0.1 µM,0.688
same,relative viability,NCI-H1734; first compound 0.001 µM,0.761
same,relative viability,NCI-H1734; first compound 0.003162 µM,0.803
same,relative viability,NCI-H1734; first compound 0.01 µM,0.832
same,relative viability,NCI-H1734; first compound 0.03162 µM,0.626
same,relative viability,NCI-H1734; first compound 0.1 µM,0.371
same,relative viability,CAL-12T; first compound 0.001 µM,0.673
same,relative viability,CAL-12T; first compound 0.003162 µM,0.704
same,relative viability,CAL-12T; first compound 0.01 µM,0.994
same,relative viability,CAL-12T; first compound 0.03162 µM,0.573
same,relative viability,CAL-12T; first compound 0.1 µM,0.566
same,relative viability,A-427; first compound 0.001 µM,0.839
same,relative viability,A-427; first compound 0.003162 µM,0.892
same,relative viability,A-427; first compound 0.01 µM,0.935
same,relative viability,A-427; first compound 0.03162 µM,0.963
same,relative viability,A-427; first compound 0.1 µM,0.775
same,relative viability,NCI-H647; first compound 0.001 µM,0.433
same,relative viability,NCI-H647; first compound 0.003162 µM,0.671
same,relative viability,NCI-H647; first compound 0.01 µM,0.418
same,relative viability,NCI-H647; first compound 0.03162 µM,0.314
same,relative viability,NCI-H647; first compound 0.1 µM,0.245
same,relative viability,NCI-H1944; first compound 0.001 µM,0.558
same,relative viability,NCI-H1944; first compound 0.003162 µM,0.795
same,relative viability,NCI-H1944; first compound 0.01 µM,0.671
same,relative viability,NCI-H1944; first compound 0.03162 µM,0.481
same,relative viability,NCI-H1944; first compound 0.1 µM,0.457
same,relative viability,BEN; first compound 0.001 µM,0.532
same,relative viability,BEN; first compound 0.003162 µM,0.556
same,relative viability,BEN; first compound 0.01 µM,0.723
same,relative viability,BEN; first compound 0.03162 µM,0.642
same,relative viability,BEN; first compound 0.1 µM,0.574
same,relative viability,ABC-1; first compound 0.001 µM,1.07
same,relative viability,ABC-1; first compound 0.003162 µM,1.03
same,relative viability,ABC-1; first compound 0.01 µM,1.11
same,relative viability,ABC-1; first compound 0.03162 µM,1.1
same,relative viability,ABC-1; first compound 0.1 µM,0.754
same,relative viability,NCI-H1666; first compound 0.001 µM,0.942
same,relative viability,NCI-H1666; first compound 0.003162 µM,1.11
same,relative viability,NCI-H1666; first compound 0.01 µM,1.17
same,relative viability,NCI-H1666; first compound 0.03162 µM,1.11
same,relative viability,NCI-H1666; first compound 0.1 µM,1.17
same,relative viability,NCI-H520; first compound 0.001 µM,0.584
same,relative viability,NCI-H520; first compound 0.003162 µM,0.79
same,relative viability,NCI-H520; first compound 0.01 µM,0.81
same,relative viability,NCI-H520; first compound 0.03162 µM,0.617
same,relative viability,NCI-H520; first compound 0.1 µM,0.699
same,relative viability,SW 900; first compound 0.003162 µM,0.456
same,relative viability,SW 900; first compound 0.01 µM,0.624
same,relative viability,SW 900; first compound 0.03162 µM,0.216
same,relative viability,SW 900; first compound 0.1 µM,0.368
same,relative viability,NCI-H661; first compound 0.001 µM,0.792
same,relative viability,NCI-H661; first compound 0.003162 µM,0.889
same,relative viability,NCI-H661; first compound 0.01 µM,0.875
same,relative viability,NCI-H661; first compound 0.03162 µM,0.642
same,relative viability,NCI-H661; first compound 0.1 µM,0.615
same,relative viability,NCI-H1651; first compound 0.001 µM,0.531
same,relative viability,NCI-H1651; first compound 0.003162 µM,0.612
same,relative viability,NCI-H1651; first compound 0.01 µM,0.602
same,relative viability,NCI-H1651; first compound 0.03162 µM,0.528
same,relative viability,NCI-H1651; first compound 0.1 µM,0.418
